Like-named read-outs stand apart in the source and are kept apart here.
Legend:
[1] = target: TrkA (histidine-tagged recombinant human TrkA, cytoplasmic domain) (Homo sapiens (Human), UniProt P04629); assay: TrkA ELISA Assay; type: biochemical; details: Table 1; ELISA, 500 μM ATP; read-out: TrkA Enzyme IC50
Experimental: An enzyme-linked immunosorbant assay (ELISA) was used to assess TrkA kinase activity in the presence of inhibitors. Immulon 4HBX 384-well microtiter plates (Thermo part #8755) were coated with a 0.025 mg/mL solution of poly (Glu, Ala, Tyr; 6:3:1; Sigma P3899). […] The reaction mixture was removed from the plate by washing with PBS containing 0.1% (v/v) Tween 20. The phosphorylated reaction product was detected using 0.2 μg/mL of a phosphotyrosine specific monoclonal antibody (clone PY20) conjugated to horseradish peroxidase in conjunction with the TMB Peroxidase Substrate System (KPL). After the addition of 1M phosphoric acid, the chromogenic substrate color intensity was quantitated via absorbance at 450 nm.

[2] = target: Human Jak2 kinase domain (Homo sapiens (Human), UniProt O60674); assay: Jak2 Inhibition Assay (Omnia kinase assay); type: biochemical; details: for IC50: read-out: Jak2 Enzyme IC50; for Jak2 Enzyme (% inhibition at 1000 nM): 1000 nM test compound
Experimental: The assays described in Examples C, D, E and F for the determination of JAK1, JAK2, JAK3 and Tyk2 kinase activity, respectively, utilized the Omnia® Kinase fluorescence peptide substrate-based technology (Invitrogen). […] The reactions were therefore read at excitation 360 nm and emission was measured at 485 nm every 50 seconds for 45 minutes using a PerkinElmer EnVision Multilabel Plate Reader.
The final buffer conditions for each of the JAK1, JAK2, JAK3 and Tyk2 assays were as follows: 25 mM HEPES, pH 7.4, 10 mM MgCl2, 0.01% Triton X-100 and 1 mM DTT.
Two-μL aliquots of these were transferred to a fresh plate for a ten-fold intermediate dilution with assay buffer. Five-μL aliquots of the diluted compounds were then transferred to 20-μL of assay mixtures described in Examples C, D, E and F for a final concentration of DMSO of 2%. […] For each plate, percent of control (POC) values were calculated for each well according to the following equation:
[formula] • where • Xmax=Average Uninhibited Controls • Xmin=Average Background IC50's were estimated from the POC's using a standard 4-parameter logistic model:
[formula] • where • A=Minimum Y (Bottom Asymptote) • B=Maximum Y (Top Asymptote) • C=EC50 • D=Slope Factor • X=Compound Concentration (nM) • Y=POC
The IC50 is defined as the concentration of inhibitor at which the POC equals 50 for the fitted curve.
Compounds of Formula I were screened for their ability to inhibit Jak2 using the general enzyme inhibition assay method, in which the assay mixture contained 500 μM ATP, 10 μM Omnia® Y7 peptide (Catalog # IVGN KNZ3071C, Invitrogen Corporation, Carlsbad, Calif.) and 4 nM Jak2 in a total volume of 20 μL. Human Jak2 kinase domain comprising amino acids 808-1132 was purchased from Invitrogen Corporation, Carlsbad, Calif. (catalog # IVGN PV4210).

[3] = Table 1, 500 μM ATP, >1000 nM when >50% inhibition not observed at 1000 nM

Human Jak2 kinase domain, sequence (O60674 808-1132): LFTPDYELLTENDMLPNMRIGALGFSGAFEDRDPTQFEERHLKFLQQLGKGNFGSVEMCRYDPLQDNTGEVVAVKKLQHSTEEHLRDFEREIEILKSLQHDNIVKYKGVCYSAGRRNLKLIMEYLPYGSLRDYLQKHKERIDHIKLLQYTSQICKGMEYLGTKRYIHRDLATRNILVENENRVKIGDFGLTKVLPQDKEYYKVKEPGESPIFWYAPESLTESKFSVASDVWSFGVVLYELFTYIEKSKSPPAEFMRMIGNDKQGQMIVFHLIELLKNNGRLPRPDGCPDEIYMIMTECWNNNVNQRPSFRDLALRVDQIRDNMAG
TrkA (histidine-tagged recombinant human TrkA, cytoplasmic domain), sequence (P04629 440-796): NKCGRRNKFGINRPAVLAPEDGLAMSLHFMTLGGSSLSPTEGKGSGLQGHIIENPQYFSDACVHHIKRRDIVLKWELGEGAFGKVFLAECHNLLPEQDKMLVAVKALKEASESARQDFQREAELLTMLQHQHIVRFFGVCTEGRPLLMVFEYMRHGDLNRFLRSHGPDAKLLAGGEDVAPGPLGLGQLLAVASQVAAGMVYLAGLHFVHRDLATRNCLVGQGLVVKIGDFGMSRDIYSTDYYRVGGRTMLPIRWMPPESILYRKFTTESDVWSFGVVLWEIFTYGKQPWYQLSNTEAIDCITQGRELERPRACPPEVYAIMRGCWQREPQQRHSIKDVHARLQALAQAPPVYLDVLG

IC50 [1] [nM]	IC50 [2, 3] [nM]	IC50 [2] [nM]	Jak2 Enzyme (% inhibition at 1000 nM) ([2]; Table 1)	Structure (SMILES)
2.2	> 1000	–	–	C[C@@H](O)CNC(=O)c1cnn2ccc(N3CCCC3c3cc(F)ccc3F)nc12 (stereo in doubt) [Example 167, 5-((R)-2-(2,5-difluorophenyl)pyrrolidin-1-yl)-N-(2-hydroxypropyl)pyrazolo[1,5-a]pyrimidine-3-carboxamide]
0.7	> 1000	–	–	CC(C)(C)NC(=O)c1cnn2ccc(N3CCC[C@@H]3c3cc(F)ccc3F)nc12 [Example 1, (R)—N-tert-butyl-5-(2-(2,5-difluorophenyl)pyrrolidin-1-yl)pyrazolo[1,5-a]pyrimidine-3-carboxamide]
0.7	> 1000	–	–	O=C(Nc1ccccn1)c1cnn2ccc(N3CCC[C@@H]3c3cc(F)ccc3F)nc12 [Example 2, (R)-5-(2-(2,5-difluorophenyl)pyrrolidin-1-yl)-N-(pyridin-2-yl)pyrazolo[1,5-a]pyrimidine-3-carboxamide]
2.3	> 1000	–	–	Cc1cccnc1NC(=O)c1cnn2ccc(N3CCC[C@@H]3c3cc(F)ccc3F)nc12 [Example 3, (R)-5-(2-(2,5-difluorophenyl)pyrrolidin-1-yl)-N-(3-methylpyridin-2-yl)pyrazolo[1,5-a]pyrimidine-3-carboxamide]
0.95	> 1000	–	–	O=C(NCCN1CCOCC1)c1cnn2ccc(N3CCC[C@@H]3c3cc(F)ccc3F)nc12 [Example 4, (R)-5-(2-(2,5-difluorophenyl)pyrrolidin-1-yl)-N-(2-morpholinoethyl)pyrazolo[1,5-a]pyrimidine-3-carboxamide]
0.95	> 1000	–	–	Cc1ccc(CNC(=O)c2cnn3ccc(N4CCC[C@@H]4c4cc(F)ccc4F)nc23)o1 [Example 5, (R)-5-(2-(2,5-difluorophenyl)pyrrolidin-1-yl)-N-((5-methylfuran-2-yl)methyl)pyrazolo[1,5-a]pyrimidine-3-carboxamide]
1.55	> 1000	–	–	Cn1ccc(NC(=O)c2cnn3ccc(N4CCC[C@@H]4c4cc(F)ccc4F)nc23)n1 [Example 6, (R)-5-(2-(2,5-difluorophenyl)pyrrolidin-1-yl)-N-(1-methyl-1H-pyrazol-3-yl)pyrazolo[1,5-a]pyrimidine-3-carboxamide]
0.45	107	–	–	O=C(N[C@H]1CC[C@H](O)CC1)c1cnn2ccc(N3CCC[C@@H]3c3cc(F)ccc3F)nc12 [Example 7, 5-((R)-2-(2,5-difluorophenyl)pyrrolidin-1-yl)-N-((trans)-4-hydroxycyclohexyl)pyrazolo[1,5-a]pyrimidine-3-carboxamide]
1.1	> 1000	–	–	CC(C)(CO)NC(=O)c1cnn2ccc(N3CCC[C@@H]3c3cc(F)ccc3F)nc12 [Example 8, (R)-5-(2-(2,5-difluorophenyl)pyrrolidin-1-yl)-N-(1-hydroxy-2-methylpropan-2-yl)pyrazolo[1,5-a]pyrimidine-3-carboxamide]
3.45	> 1000	–	–	CC(C)(CN1CCOCC1)NC(=O)c1cnn2ccc(N3CCC[C@@H]3c3cc(F)ccc3F)nc12 [Example 9, (R)-5-(2-(2,5-difluorophenyl)pyrrolidin-1-yl)-N-(2-methyl-1-morpholinopropan-2-yl)pyrazolo[1,5-a]pyrimidine-3-carboxamide]
1.05	> 1000	–	–	CNC(=O)c1cnn2ccc(N3CCC[C@@H]3c3cc(F)ccc3F)nc12 [Example 10, (R)-5-(2-(2,5-difluorophenyl)pyrrolidin-1-yl)-N-methylpyrazolo[1,5-a]pyrimidine-3-carboxamide]
238	–	> 1000	–	O=C(O)CC1CCN(C(=O)c2cnn3ccc(N4CCC[C@@H]4c4cc(F)ccc4F)nc23)CC1 [Example 12, (R)-2-(1-(5-(2-(2,5-difluorophenyl)pyrrolidin-1-yl)pyrazolo[1,5-a]pyrimidine-3-carbonyl)piperidin-4-yl)acetic acid]
0.5	> 1000	–	–	O=C(NC1CC1)c1cnn2ccc(N3CCC[C@@H]3c3cc(F)ccc3F)nc12 [Example 13, (R)—N-cyclopropyl-5-(2-(2,5-difluorophenyl)pyrrolidin-1-yl)pyrazolo[1,5-a]pyrimidine-3-carboxamide]
0.55	470	–	–	O=C(NC1CCC1)c1cnn2ccc(N3CCC[C@@H]3c3cc(F)ccc3F)nc12 [Example 14, (R)—N-cyclobutyl-5-(2-(2,5-difluorophenyl)pyrrolidin-1-yl)pyrazolo[1,5-a]pyrimidine-3-carboxamide]
0.9	> 1000	–	–	O=C(NC1(CO)CC1)c1cnn2ccc(N3CCC[C@@H]3c3cc(F)ccc3F)nc12 [Example 16, (R)-5-(2-(2,5-difluorophenyl)pyrrolidin-1-yl)-N-(1-(hydroxymethyl)cyclopropyl)pyrazolo[1,5-a]pyrimidine-3-carboxamide]
2.15	> 1000	–	–	CC(C)(O)CNC(=O)c1cnn2ccc(N3CCC[C@@H]3c3cc(F)ccc3F)nc12 [Example 17, (R)-5-(2-(2,5-difluorophenyl)pyrrolidin-1-yl)-N-(2-hydroxy-2-methylpropyl)pyrazolo[1,5-a]pyrimidine-3-carboxamide]
38.3	> 1000	–	–	O=C(c1cnn2ccc(N3CCC[C@@H]3c3cc(F)ccc3F)nc12)N1CC[C@H](O)C1 [Example 18, (5-((R)-2-(2,5-difluorophenyl)pyrrolidin-1-yl)pyrazolo[1,5-a]pyrimidin-3-yl)((S)-3-hydroxypyrrolidin-1-yl)methanone]
74.2	> 1000	–	–	O=C(c1cnn2ccc(N3CCC[C@@H]3c3cc(F)ccc3F)nc12)N1CC[C@@H](O)C1 [Example 19, (5-((R)-2-(2,5-difluorophenyl)pyrrolidin-1-yl)pyrazolo[1,5-a]pyrimidin-3-yl)((R)-3-hydroxypyrrolidin-1-yl)methanone]
–	–	–	(13.8) %	O=C(N[C@H]1CC[C@@H](O)CC1)c1cnn2ccc(N3CCC[C@@H]3c3cncc(F)c3)nc12 [Example 100, 5-((R)-2-(5-fluoropyridin-3-yl)pyrrolidin-1-yl)-N-((cis)-4-hydroxycyclohexyl)pyrazolo[1,5-a]pyrimidine-3-carboxamide]
–	> 1000	–	–	O=C(NCCN1CCC(O)CC1)c1cnn2ccc(N3CCC[C@@H]3c3cc(F)ccc3F)nc12 [Example 170, 5-((R)-2-(2,5-difluorophenyl)pyrrolidin-1-yl)-N-(2-(4-hydroxypiperidin-1-yl)ethyl)pyrazolo[1,5-a]pyrimidine-3-carboxamide]
–	–	–	(16.2) %	Cc1ncc(F)cc1[C@H]1CCCN1c1ccn2ncc(C(=O)N[C@H]3CC[C@@H](O)CC3)c2n1 [Example 195, 5-((R)-2-(5-fluoro-2-methylpyridin-3-yl)pyrrolidin-1-yl)-N-((cis)-4-hydroxycyclohexyl)pyrazolo[1,5-a]pyrimidine-3-carboxamide]
11.3	–	–	–	COc1ncc(F)cc1[C@H]1CCCN1c1ccn2ncc(C(=O)Nc3cc(C)n[nH]3)c2n1 [Example 240, (R)-5-(2-(5-fluoro-2-methoxypyridin-3-yl)pyrrolidin-1-yl)-N-(3-methyl-1H-pyrazol-5-yl)pyrazolo[1,5-a]pyrimidine-3-carboxamide]
21.8	–	–	–	COc1ncc(F)cc1[C@H]1CCCN1c1ccn2ncc(C(=O)Nc3ccn(C)n3)c2n1 [Example 241, (R)-5-(2-(5-fluoro-2-methoxypyridin-3-yl)pyrrolidin-1-yl)-N-(1-methyl-1H-pyrazol-3-yl)pyrazolo[1,5-a]pyrimidine-3-carboxamide]
8.9	–	–	–	COc1ncc(F)cc1[C@H]1CCCN1c1ccn2ncc(C(=O)Nc3cc(C4CC4)n[nH]3)c2n1 [Example 242, (R)-N-(3-cyclopropyl-1H-pyrazol-5-yl)-5-(2-(5-fluoro-2-methoxypyridin-3-yl)pyrrolidin-1-yl)pyrazolo[1,5-a]pyrimidine-3-carboxamide]
38.2	–	–	–	COc1ncc(F)cc1[C@H]1CCCN1c1ccn2ncc(C(=O)Nc3ccn(C(C)C)n3)c2n1 [Example 244, (R)-5-(2-(5-fluoro-2-methoxypyridin-3-yl)pyrrolidin-1-yl)-N-(1-isopropyl-1H-pyrazol-3-yl)pyrazolo[1,5-a]pyrimidine-3-carboxamide]

— patent US8791123B2, “Substituted pyrazolo[1,5-a]pyrimidine compounds as Trk kinase inhibitors” (Array Biopharma, Inc., priority 2009, dated 2014)
